Active and inactive are the calls of the source.
Columns and labels:
HEK293 [1] = assay: cells; settings: Homo sapiens
HEK293 [2] = assay: cells; settings: Homo sapiens; remark: listed apart in the source
Hexokinase HKDC1 = molecular target: T1, Hexokinase HKDC1 (Homo sapiens, UniProt Q2TB90); assay: inhibition of HKDC1 glucose phosphorylation – biochemical, W721R variant, dose response (AID 504729); assay type: functional
T1 sequence (Q2TB90 whole entry): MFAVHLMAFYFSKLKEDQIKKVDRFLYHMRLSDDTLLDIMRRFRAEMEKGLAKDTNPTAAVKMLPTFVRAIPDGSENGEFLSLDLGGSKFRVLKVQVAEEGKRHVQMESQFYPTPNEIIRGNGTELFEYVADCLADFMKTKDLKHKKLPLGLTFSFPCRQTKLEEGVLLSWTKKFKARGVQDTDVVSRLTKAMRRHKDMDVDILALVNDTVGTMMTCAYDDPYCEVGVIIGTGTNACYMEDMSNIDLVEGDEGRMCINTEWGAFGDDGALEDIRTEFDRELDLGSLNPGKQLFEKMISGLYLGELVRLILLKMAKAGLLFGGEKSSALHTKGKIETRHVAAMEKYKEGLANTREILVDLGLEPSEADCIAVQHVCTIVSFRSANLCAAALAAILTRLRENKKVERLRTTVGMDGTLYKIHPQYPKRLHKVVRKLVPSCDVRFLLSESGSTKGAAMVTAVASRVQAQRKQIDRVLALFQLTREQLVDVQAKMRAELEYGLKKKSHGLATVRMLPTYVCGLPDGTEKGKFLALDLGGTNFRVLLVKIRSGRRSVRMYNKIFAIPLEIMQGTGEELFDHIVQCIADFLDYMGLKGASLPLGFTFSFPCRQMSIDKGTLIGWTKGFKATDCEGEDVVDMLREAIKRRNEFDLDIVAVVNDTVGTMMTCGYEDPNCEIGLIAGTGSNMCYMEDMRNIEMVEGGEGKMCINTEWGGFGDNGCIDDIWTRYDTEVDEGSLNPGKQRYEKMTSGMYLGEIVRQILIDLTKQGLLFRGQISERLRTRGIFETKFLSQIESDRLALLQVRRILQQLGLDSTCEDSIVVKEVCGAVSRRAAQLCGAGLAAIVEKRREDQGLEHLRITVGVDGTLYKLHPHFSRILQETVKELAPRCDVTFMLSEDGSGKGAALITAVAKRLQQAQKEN

[3] = microbe, parasite or virus in culture; assay type: functional; settings: Mycobacterium tuberculosis
HEK293 [4] = assay: NOD2 signaling inhibitors in MDP-stimulated cells, cell-based, uHTS, luminescence (AID 2001); assay type: functional; settings: Homo sapiens
[5] = THP-1 cell cytotoxicity, dose response, cytotoxicity control for non-replicating M. tuberculosis project (AID 489025); assay type: functional
HEK293 [6] = assay: inhibition of NOD1-driven NF-kB reporter – cell-based, luminescence, uHTS, primary screen (AID 1578); assay type: functional; settings: Homo sapiens
HEK293 [7] = assay: cells; assay type: functional, cell-based; settings: Homo sapiens
[8] = reduction of Shn3 3'UTR-driven luciferase in osteoblasts – cell-based, Clone20 osteoblasts, firefly luciferase, cherry-picked, dose response (AID 624132); assay type: functional;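 also: firefly luciferase luminescence from reporter carrying the Shn3 3'UTR in osteoblasts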
[9] = Vero E6 cell cytotoxicity, dose response, cytotoxicity control for non-replicating M. tuberculosis project, secondary assay (AID 492998); assay type: functional, VeroE6; settings: Vero C1008
[10] = Luminescent dose response cell-based high throughput screening assay for inhibitors of the Janus kinase 2 mutant JAK2V617F. [Related pubchem assays: 1446 (Primary screen.), 1521 (Confirmation assay.), 1486 (Counter screen.)]; assay type: functional
HEK293 [11] = assay: cells; assay type: functional, cell-based; settings: Homo sapiens; remark: listed apart in the source
cells = assay type: functional
[12] = non-specific 3'UTR reporter inhibition in Clone20-Shn3RL – cell-based, Renilla luciferase, cherry-picked, counter-screen for Shn3 inhibitor project, dose response (AID 624133); assay type: functional
[13] = loss of viability in HepG2 cells – cell-based, CellTiter-Glo, cherry-picked, cytotoxicity control for Shn3 inhibitor project, dose response (AID 624134); assay type: functional
[14] = Luminescence Cell-Based Dose Retest to Confirm Inhibitors of Cancer Stem Cells. [Related pubchem assays (depositor defined):AID2717, AID2721]; assay type: functional; settings: Homo sapiens
Vero [15] = assay: cells; assay type: functional; settings: Chlorocebus sabaeus
[16] = Trypanosoma cruzi growth suppression in host cells – NIH3T3 host cells, beta-gal luminescence, confirmation (AID 2044); assay type: functional, cell-based;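 also: intracellular parasites grown in NIH/3T3 mouse fibroblasts as host cells; luminescent beta-galactosidase reporter signal from transgenic T. cruzi replicating inside host cells; inhibitors lower the luminescence signal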
[17] = NIH3T3 cell viability loss – ATP luminescence, mouse fibroblasts, counter-screen, dose response (AID 2010); assay type: functional, cell-based;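 also: cells exposed to compound for about 90 hours before reading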
[18] = decrease of insulin promoter-GFP reporter – imaging, high-content screening, mouse beta cells (AID 1628); assay type: functional; settings: MIN6
[19] = MIN6 cell viability loss – mouse insulinoma, cytotoxicity control, dose response (AID 2122); assay type: functional;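 also: confirmatory high-throughput counterscreen run to flag cytotoxic compounds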
[20] = molecular target: T2, Replicative DNA helicase DnaB (Mycobacterium tuberculosis, UniProt P9WMR3); assay: DnaB intein splicing inhibitors, dose response, biochemical, cell-free fluorescence (AID 449749); assay type: functional
T2 sequence (P9WMR3 whole entry): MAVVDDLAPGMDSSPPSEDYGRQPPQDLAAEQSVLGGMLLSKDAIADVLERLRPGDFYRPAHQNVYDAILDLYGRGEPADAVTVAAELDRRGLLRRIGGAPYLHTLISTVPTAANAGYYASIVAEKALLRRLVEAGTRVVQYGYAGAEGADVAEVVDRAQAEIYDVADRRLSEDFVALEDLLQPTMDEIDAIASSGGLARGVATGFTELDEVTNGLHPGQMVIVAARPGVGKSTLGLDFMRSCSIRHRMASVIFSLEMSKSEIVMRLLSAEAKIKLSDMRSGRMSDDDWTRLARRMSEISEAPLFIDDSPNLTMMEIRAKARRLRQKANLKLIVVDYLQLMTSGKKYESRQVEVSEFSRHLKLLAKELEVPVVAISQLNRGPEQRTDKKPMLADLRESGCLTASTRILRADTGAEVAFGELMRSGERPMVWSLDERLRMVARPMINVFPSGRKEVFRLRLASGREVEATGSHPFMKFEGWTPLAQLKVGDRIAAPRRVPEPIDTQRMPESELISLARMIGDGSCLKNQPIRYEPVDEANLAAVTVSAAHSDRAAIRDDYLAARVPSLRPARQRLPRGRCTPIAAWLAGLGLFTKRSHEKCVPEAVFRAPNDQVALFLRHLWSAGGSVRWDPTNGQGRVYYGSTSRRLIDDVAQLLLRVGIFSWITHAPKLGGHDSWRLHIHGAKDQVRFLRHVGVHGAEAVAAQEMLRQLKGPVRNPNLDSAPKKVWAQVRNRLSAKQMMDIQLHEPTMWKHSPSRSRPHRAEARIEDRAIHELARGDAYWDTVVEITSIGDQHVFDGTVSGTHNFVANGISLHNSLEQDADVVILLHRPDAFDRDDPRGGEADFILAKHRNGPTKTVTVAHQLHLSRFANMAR

Vero [21] = assay: viability of Vero cells under compound – cytotoxicity control for flavivirus capping enzyme inhibitors (AID 588742); assay type: functional; settings: Chlorocebus sabaeus
Protein RecA = molecular target: T3, Protein RecA (Mycobacterium tuberculosis, UniProt P9WHJ3); assay: Fluorescence Cell-Free Homogeneous Dose Retest to Identify Inhibitors of RecA-Intein Splicing Activity. [Related pubchem assays (depositor defined):AID2097, AID2223, AID489010, AID492950]; assay type: functional
T3 sequence (P9WHJ3 whole entry): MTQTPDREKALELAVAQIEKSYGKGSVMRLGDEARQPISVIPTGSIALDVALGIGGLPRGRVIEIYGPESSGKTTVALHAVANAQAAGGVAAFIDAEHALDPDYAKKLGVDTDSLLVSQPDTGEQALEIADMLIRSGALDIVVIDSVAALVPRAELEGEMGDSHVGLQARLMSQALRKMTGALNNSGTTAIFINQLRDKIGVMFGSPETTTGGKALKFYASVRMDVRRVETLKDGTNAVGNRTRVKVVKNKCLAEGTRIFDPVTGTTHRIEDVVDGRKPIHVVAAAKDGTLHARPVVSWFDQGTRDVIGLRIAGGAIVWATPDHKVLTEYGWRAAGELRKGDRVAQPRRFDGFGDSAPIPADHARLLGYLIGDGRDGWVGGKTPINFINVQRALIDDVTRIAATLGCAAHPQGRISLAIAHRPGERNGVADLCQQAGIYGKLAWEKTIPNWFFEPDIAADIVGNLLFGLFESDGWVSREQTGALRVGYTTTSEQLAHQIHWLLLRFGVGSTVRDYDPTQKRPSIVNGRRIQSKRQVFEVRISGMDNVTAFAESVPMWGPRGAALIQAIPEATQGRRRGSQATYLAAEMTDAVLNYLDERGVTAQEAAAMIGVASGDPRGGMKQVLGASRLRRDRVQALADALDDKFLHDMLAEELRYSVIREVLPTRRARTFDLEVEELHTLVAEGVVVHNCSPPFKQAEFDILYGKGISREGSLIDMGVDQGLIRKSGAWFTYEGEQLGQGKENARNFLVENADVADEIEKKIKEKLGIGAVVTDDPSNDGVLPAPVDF

Vero [22] = assay: cells; assay type: functional, cell-based; settings: Chlorocebus sabaeus

With `CC(C)(C)N1C(=O)[C@H]2[C@@H](c3ccc(Br)cc3)N3C(=O)N(c4ccccc4)C(=O)[C@@]3(Cc3ccccc3)[C@H]2C1=O` as the compound, how does the EC50 (HEK293 [1]) read?
Its EC50 is > 59.6 µM (inactive).

And the EC50 (HEK293 [2])?
Its EC50 is > 59.6 µM (inactive).

For `Cc1nc([N+](=O)[O-])c(Br)n1CC(=O)c1ccc2ccccc2c1`, which IC50 (Hexokinase HKDC1) is on record?
The IC50 was 20.6 µM (inactive).

What about the CC50 [3] of the same compound?
The CC50 was 16 µM (active).

What about the IC50 (HEK293 [4]) of the same compound?
The IC50 was 3.77 µM (active).

What about the CC50 [5] of the same compound?
Its CC50 is 17.4 µM (active).

What about the EC50 (HEK293 [6]) of the same compound?
Its EC50 is 17.6 µM (active).

What about the IC50 (HEK293 [7]) of the same compound?
The IC50 was 3.46 µM (active).

What about the AC50 [8] of the same compound?
The AC50 was 10.7 µM (active).

And the CC50 [9]?
Its CC50 is 16.3 µM (active).

What about the IC50 [10] of the same compound?
Its IC50 is 1.88 µM (active).

What about the IC50 (HEK293 [11]) of the same compound?
Its IC50 is > 20 µM (inactive).

And the IC50 (cells)?
The IC50 was 10.1 µM (active).

What about the AC50 [12] of the same compound?
The AC50 was 3.22 µM (active).

What about the AC50 [13] of the same compound?
The AC50 was 63.7 µM (active).

And the AC50 [14]?
Its AC50 is 4.44 µM (active).

What does the source list for `Cc1ccc(OCC(O)Cn2c(=N)n(CCN3CCCCC3)c3ccccc32)cc1` (configuration not stated)?
CC50 (Vero [15]): 13.8 µM (active); EC50 [16]: 3.83 µM (active); EC50 [17]: > 60 µM (not active); IC50 [18]: 1.28 µM (active); IC50 [19]: 3.24 µM (active)

With `Oc1cc(N=Nc2ccc(Cl)cc2)nc(O)n1` as the compound, how does the AC50 [20] read?
Its AC50 is 2.37 µM (active).

And the CC50 [3]?
The CC50 was 8.44 µM (active).

What about the CC50 (Vero [21]) of the same compound?
The CC50 was 14.8 µM (active).

What about the CC50 (Vero [15]) of the same compound?
The CC50 was > 25 µM (active).

And the EC50 (Protein RecA)?
Its EC50 is 1.2 µM (active).

What about the IC50 (Vero [22]) of the same compound?
The IC50 was 21.9 µM (active).

Source: ChEMBL document CHEMBL1201862, “PubChem BioAssay data set” (2004)
